Activity calls are given as the source filed them. How the calls were made is not given here.

The assay deals with M. tuberculosis wild type, biotin-free medium, growth. The experiment in a line: growth inhibition of wild-type M. tuberculosis, biotin-free medium, single point, dry powder (AID 743350).

What is called IC90 is the concentration at which the effect reaches the 90% level. For `COc1cccc(NC(=O)N2CC[C@@H]3[C@@H](CO)N(C)c4ccc(-c5cccc(F)c5)cc4[C@@H]32)c1`, the IC90 is > 50 µM (inactive).
Next, `COC(=O)CCCCCCC(=O)N1CC[C@@H]2[C@@H](CO)N(C)c3ccc(-c4cccc(F)c4)cc3[C@@H]21`: > 50 µM (inactive); `CNC(=O)c1ccc(N2CCN(C(=O)c3ccc4c(c3)OCO4)CC2)cc1`: > 50 µM (inactive); `CN1c2ccc(-c3ccc(F)cc3)cc2[C@H]2[C@H](CCN2C(=O)Nc2cc(F)ccc2F)[C@H]1CO`: > 50 µM (inactive).
In the case of `CC(=O)c1ccc(N2CC3(CN(C(=O)c4ccc5c(c4)OCO5)C3)C2)cc1`, the IC90 was > 50 µM (inactive).
The result for `CN1c2ccc(-c3cccc(F)c3)cc2[C@H]2[C@H](CCN2C(=O)Cc2cccnc2)[C@H]1CO` reads > 50 µM (inactive).
Consider `CN(C)C(=O)c1ccc(N2CCN(C(=O)c3ccc4c(c3)OCO4)CC2)cc1`, for which the IC90 was > 50 µM (inactive).
With `CN1c2ccc(-c3cccc(F)c3)cc2[C@@H]2[C@@H](CCN2C(=O)c2ccc3c(c2)OCO3)[C@@H]1CO`, the IC90 was > 50 µM (inactive).
The result for `CN1c2ccc(-c3cccc(F)c3)cc2[C@H]2[C@H](CCN2C(=O)c2ccc3c(c2)OCO3)[C@@H]1CO` reads > 50 µM (inactive); that for `CN1c2ccc(-c3cccc(F)c3)cc2[C@H]2[C@H](CCN2C(=O)Cc2ccccc2)[C@H]1CO`, > 50 µM (inactive); that for `COc1ccccc1NC(=O)N1CC[C@@H]2[C@@H](CO)N(C)c3ccc(-c4cccc(F)c4)cc3[C@@H]21`, > 50 µM (inactive).
Next, `CC(C)NC(=O)N1CC[C@@H]2[C@@H](CO)N(C)c3ccc(-c4cccc(F)c4)cc3[C@@H]21`: > 50 µM (inactive); `CNS(=O)(=O)c1ccc(N2CCN(C(=O)c3ccc4c(c3)OCO4)CC2)cc1`: > 50 µM (inactive).
As to `COc1ccc(NC(=O)N2CC[C@@H]3[C@@H](CO)N(C)c4ccc(-c5ccc(F)cc5)cc4[C@@H]32)cc1`, the IC90 was > 50 µM (inactive).
Consider `CN1c2ccc(-c3ccc(F)cc3)cc2[C@H]2[C@H](CCN2C(=O)Nc2ccc(F)cc2)[C@H]1CO`, for which the IC90 is > 50 µM (inactive).
The result for `CC(=O)c1ccc(N2CCN(C(=O)c3ccccc3Cl)CC2)cc1` reads > 50 µM (inactive); that for `CN1c2ccc(-c3ccc(F)cc3)cc2[C@H]2[C@H](CCN2C(=O)Cc2ccccn2)[C@H]1CO`, > 50 µM (inactive).
The result for `COc1ccccc1C(=O)N1CCN(c2ccc(C(C)=O)cc2)CC1` reads > 50 µM (inactive).
With `CC(=O)c1ccc(NCCNC(=O)c2ccc3c(c2)OCO3)cc1`, the IC90 was > 50 µM (inactive).
Next, `COc1ccccc1NC(=O)N1CC[C@@H]2[C@@H](CO)N(C)c3ccc(-c4ccc(F)cc4)cc3[C@@H]21`: > 50 µM (inactive).
The result for `CN1c2ccc(-c3cccc(F)c3)cc2[C@H]2[C@H](CCN2C(=O)CCCCCCN)[C@H]1CO` reads > 50 µM (inactive); that for `COCC(=O)N1CC[C@@H]2[C@@H](CO)N(C)c3ccc(-c4cccc(F)c4)cc3[C@@H]21`, > 50 µM (inactive).
On to `CCCCCCCC(=O)N1CC[C@@H]2[C@@H](CO)N(C)c3ccc(-c4cccc(F)c4)cc3[C@@H]21`, for which the IC90 is > 50 µM (inactive).
Turning to `CC(=O)c1ccc(N2CCN(C(=O)c3ccccc3F)CC2)cc1`, the IC90 is > 50 µM (inactive).
Next, `CN1c2ccc(-c3ccc(F)cc3)cc2[C@H]2[C@H](CCN2C(=O)Cc2cccnc2)[C@H]1CO`: > 50 µM (inactive); `COc1ccc(NC(=O)N2CC[C@@H]3[C@@H](CO)N(C)c4ccc(-c5cccc(F)c5)cc4[C@@H]32)cc1`: > 50 µM (inactive).
For the molecule `CN1c2ccc(-c3cccc(F)c3)cc2[C@H]2[C@H](CCN2C(=O)CCCCCCC(=O)O)[C@H]1CO`, the IC90 was > 50 µM (inactive).
The result for `CCCNC(=O)N1CC[C@@H]2[C@@H](CO)N(C)c3ccc(-c4ccc(F)cc4)cc3[C@@H]21` reads > 50 µM (inactive).
Regarding `CC(=O)c1ccc(N2CCN(C(=O)c3ccc4c(c3)OCO4)CC2)cc1`, the IC90 was 39.7 µM.
Next, `CC(C)NC(=O)N1CC[C@@H]2[C@@H](CO)N(C)c3ccc(-c4ccc(F)cc4)cc3[C@@H]21`: > 50 µM (inactive).
In the case of `CN1c2ccc(-c3cccc(F)c3)cc2[C@H]2[C@H](CCN2C(=O)Nc2ccccc2F)[C@H]1CO`, the IC90 was > 50 µM (inactive).
Next, `CCC(=O)N1CC[C@@H]2[C@@H](CO)N(C)c3ccc(-c4ccc(F)cc4)cc3[C@@H]21`: > 50 µM (inactive); `CC(=O)c1ccc(N2CCN(C(=O)c3ccc4c(c3)OCO4)[C@H](C)C2)cc1`: 27.3 µM; `CN1c2ccc(-c3cccc(F)c3)cc2[C@@H]2[C@@H](CCN2C(=O)c2ccc3c(c2)OCO3)[C@H]1CO`: > 50 µM (inactive).

(Values after PubChem BioAssay AID743350 (Broad Institute, 2014).)
